Assay [1] has as its target HIV-1 RT-associated RNase H activity (Human immunodeficiency virus type 1 group M subtype B, UniProt P03366). Put plainly: Pre-steady-state single turnover RNase H reactions. It counts as biochemical. The conditions noted are these: PFA 0-10 μM, dTMP-terminated primer.
Assay [2] concerns the target T1, HIV-1 RT-associated RNase H activity (polymerase-independent) (Human immunodeficiency virus type 1 group M subtype B, UniProt P03366). It counts as biochemical. Particulars: PFA 200 μM; chimeric substrate PBS-14r8d, 0-40 min.
The target in assay [3] is T1, HIV-1 RT-associated RNase H activity (polymerase-independent). Briefly: biochemical. Particulars: IC50, primary cleavage, 600 nM chimeric hybrid labelled at 3' DNA end, 50 nM RT.
The next assay concerns the target p66^501BpF/p51 RT (Human immunodeficiency virus type 1, UniProt P03366, Y1100X). Put plainly: FRET-based RNase H assay. It counts as biochemical, HIV-1.
Another assay relates to p66^AzF/p51 RT. Briefly: FRET-based RNase H assay. It counts as biochemical, HIV-1. Particulars: azido function at position 501 (AzF).

On to `O=C(O)P(=O)(O)O` [PFA, Phosphonoformic acid], for which, in assay [1], the “Position of RNase H cleavage with increasing ligand concentration” value is “biased cleavage to position -19”. In addition, the “Inhibition of polymerase-independent RNase H cleavage” value in assay [2] was “does not inhibit RNase H cleavage”.

Regarding `CC(C)c1ccc(O)c(=O)c(O)c1` [β-thujaplicinol], the IC50 in assay [3] was above 25 µM; at p66^501BpF/p51 RT, above 300 µM. Moreover, the “Effect of mutation on β-thujaplicinol sensitivity” value in the assay on p66^AzF/p51 RT is “little to no effect”.

Broadly, the IC50 is the concentration that inhibits the measured activity by half. High values mean a need for much substance, low ones inhibition by little substance.

The values are drawn from paper PMC4285699 (Journal of molecular biology, 2009).
